Reference: US7919508B2, “3-piperidinylisochroman-5-ols as dopamine agonists” (Aventis Pharmaceuticals Inc., priority 2004, dated 2011)
Counter-ions that a name gives are not always drawn. Like-named read-outs stand apart in the source and are kept apart here.

Key:
[1] = target: human dopamine D2Long (D2L) receptors (Homo sapiens, UniProt P14416)
Procedure: [N-Methyl-^3H]Spiroperidol Binding to Cloned Human Dopamine D2Long Receptors
This assay measures the in vitro activity of drugs on cloned human dopamine D2Long (D2L) receptors and predicts the direct dopamine-displacing properties of neuropsychiatric, cardiovascular and renal agents at human dopamine D2 receptors.
Cells were maintained in Ham's F12+10% Fetal Bovine Serum+Penicillin/Streptomycin (100 U/ml/100 μg/ml)+G418 (400 μg/ml) medium and were split using Trypsin-EDTA (1 ml/plate, room temperature for ˜2 min. or until cells have lifted off plates). • 2. […] Plates are incubated at 37° C.+5% CO2 for ˜3 days or until cells were confluent.
Cells are harvested by mechanical scraping, washed using PBS collected in 250 ml Corning polypropylene centrifuge tubes, spun down and resuspended in dH2O (final volume per harvest approximately 60 ml). Protein determination is made according to the method of Lowry (Biorad DC Assay Kit). Following the determination of the protein concentration, the protein is diluted into distilled water with 10% DMSO to the appropriate volume based on expression levels (Bmax). The concentrated protein is aliquoted into 1.5 ml screw top eppendorf tubes and placed into a −80° C. freezer.
Assay Requirement: 1 cryovial per two 96 well plates
0.5M Tris Wash Buffer, pH 7.7 • a) 44.4 g Tris HCl • 26.5 g Tris Base • q.s. to 1 Liter (0.5 M Tris buffer, pH 7.7 at 37° C.) • b) make a 1:10 dilution in distilled H2O (0.05 M. Tris buffer, pH 7.7) • 2. Tris Buffer containing physiological salts • a) Stock buffer • NaCl 7.014 g • KCl 0.372 g • CaCl2 0.222 g • MgCl2 0.204 g • q.s. To 100 ml with 0.5 M. Tris Buffer • b) Dilute 1:10 in distilled H2O • This yields 0.05 M. Tris HCl, pH 7.7, containing NaCl (120 mM), KCl (5 mM), CaCl2 (2 mM) and MgCl2 (1 mM) • Optional: add 0.1% ascorbic acid and check pH (in assays with compounds that may oxidize. • c) 1.0% polyethyleneimine stock in 0.5M Tris (reagent 1.a) • Dilute 1:10 in distilled H2O Binding Assay • 750 μl Tissue • 150 μl [^3H]NMSP • 100 μl vehicle (for total binding) or 30 μM (−)
eticlopride (for nonspecific binding) or appropriate drug concentration.
The 96-Well Packard Unifilters GF/B are incubated for >1 h at 25° C. in 0.1% polyethylenimine. The cold tissue is added last and mixed on a orbital shaker for a few seconds and is then incubated at 37° C. for 30 min in a shaking water bath. The assay is stopped by rapid filtration through Packard Unifilter plates. The filter membranes are then washed with 15 ml of ice-cold 0.05 M Tris buffer. The filters are then dried (˜15 min. under a heat lamp or incubated for 15 min. in a 60° C. oven) and a bottom seal is applied. Then 40 μl of Packard Microscint 20 scintillation cocktail are added and a permanent topseal (Type P) is applied and heat sealed. The plates are placed in a Packard Topcount.
Specific binding is defined as the difference between total binding and the binding in the presence of 3 μM S-(−)-eticlopride. Total binding is approximately 10% of the total added ligand. […] The percent inhibition at each drug concentration is the mean of duplicate determinations.

D1 receptor = target: T1, D1 receptor (Homo sapiens, UniProt P21728); experiment: D1 Activation Adenylyl Cyclase Assay (cAMP FlashPlate, D1 transfected CHO cell line); assay type: cell-based
T1 construct: expressed in transfected cells; host or cells: D1 transfected CHO cell line
Procedure: D1 Activation Adenylyl Cyclase Assay
Purpose: To measure D1-agonist activity compounds using an Adenylyl Cyclase Activation Flash Plate Assay from NEN.
Buffers: Activation and Detection buffers are provided from NEN: Catalog # SMP004A.
Maintenance of D1 transfected CHO cell line: • 1. Cells are grown in a 150 cc flask in an incubator at 37° C. with 5% CO2 for 2-3 days (4 maximum) until confluent. • 2. Aspirate off old media (Cells adhere to the plastic flask), wash 2× with sterile PBS. • 3. Add ˜5 mL of Trypsin EDTA (enough to cover bottom of the flask) for 5 min. at RT. • 4. Stop digestion with 15 mL of Media (Ham's F12 plus 10% FBS, 1% P/S, 400 μg/mL G418). • Bang flask on counter to release them from the flask. • 5. Add 2 mL of this to 30 mL of Media in a fresh flask. Return to incubator. Preparation of Cells for Assay: • 1. Loosen the cells with 5 mL Vercine (EDTA)/flask for 10 minutes in incubator. • 2. Add 20 mL of Serum-free media/flask. Transfer to 50-mL Falcon tube. • 3. Spin down cells at 1000 RPM for 5 minutes at 4° C. • 4. Aspirate off old media and resuspend in 5 mL of Serum-free media/plate to be done. • 5. Dilute 10 μL 1/10 in 90 μL Trypan Blue solution and count with a hemocytometer. • Count (live cells only) all four areas and average them. • Count X 10^5 equals cells/mL (including accounting for dilution in Trypan). • 6. Dilute to 50,000 cells/50 μL (1,000,000 cells/mL) in Serum-free media. • 7. Put 50 μL/well in Rows 3-12 of a cAMP FlashPlate. • 8. Put in incubator at 37° C. for 2-4 hours, to allow cells to recover and attach. Adenylyl Cyclase Activation Assay: • 1. Prepare the cAMP standards: • Add 130 μL/well of stimulation buffer to each row of a separate 96-well “standard” plate, 2 columns/plate. • Dilute stock cAMP standard 1/5 with stimulation buffer (final concentration is 1000 pmol/mL). Add 130 μL of this to row A. • Make 1/2 serial dilutions by adding 130 μL from each well to the next (A-G), mixing between each. • Final concentrations are: • A: 500, B: 250, C: 125, D: 62.5, E: 31.25, F: 15.6, G: 7.8, H: 0 pmol/mL. • Place 100 μL from each row from 2 columns of the standard plate into columns 1 and 2 of each “reaction” plate. • 2. Prepare the negative and positive control in the “reaction” plate: • Column 3, rows A-D, add 100 μL stimulation buffer (negative control). • Column 3, rows E-H, add 90 μL of stimulation buffer plus 10 μL of 200 μM APO (positive control, […]). (10 μL 10 mM APO, plus 490 μL stim. buffer=1/50 dilution.) • 3. Prepare the agonist compound dilutions in the “compound” plate: • Add 80 μL of stimulation buffer to row A (One column for each compound), and 90 μL of stimulation buffer to rows B—H. • Add 20 μL of 10 mM of each compound to appropriate row A. • Make 1/10 serial dilutions by adding 10 μL from each well to the next (A-H), mixing between each. • 4. […]. Prepare Detection/Stop buffer by adding 90 μL/plate of cAMP-^125I to 10 mL/plate plus 6 mL (for dead volume) of detection buffer. Steps 6-8 performed with the Multi-Mek. • 6. Add 50 μL to each well of the FlashPlate with CHO cells set up earlier. • 7. Incubate at RT for 8 minutes. • 8. Stop reaction by adding 100 μL of detection/stop buffer to each well. • 9. Cover with plastic film and incubate at RT for 16-24 hours (don't wait more than 24 hours). • 10. Count in a Packard Top-Count. Calculations: • 1. Raw signals generated by cAMP standard wells, without cells, are averaged at each cAMP concentration and converted to % B/Bo by dividing the raw signal at each cAMP concentration by the raw signal with no cAMP added. • 2. These values are used to generate a standard curve by plotting cAMP concentration versus % B/Bo. • 3. Raw data for each compound at each concentration is also converted to % B/B. by the same method. • 4. These values are then converted to pmol cAMP/mL using the standard curve. • 5. These cAMP values are then averaged across the three replicates for each compound concentration. • 6. […]

[2] = target: T2, human dopamine D1 receptor (Homo sapiens, UniProt P21728); experiment: [3H]-SCH-23390 binding to cloned human dopamine D1 receptors (CHO cell membranes)
T2 construct: A 1.4 Kb Hind III to Xho I fragment was subcloned into the vector pMMLV; expressed in transfected cells; host or cells: CHO cells, clone CHO-D1M#9 (plasmid pHD1MMLV), membranes

[3] = agonist activity at the D1 receptor, adenylate cyclase assay, D1 transfected CHO cell line, read-out: D1 EC50
[4] = competitive binding, [3H]-SCH-23390, cloned human D1 in CHO membranes, read-out: D1 affinity Ki

Chain of human dopamine D2Long (D2L) receptors (P14416 whole entry): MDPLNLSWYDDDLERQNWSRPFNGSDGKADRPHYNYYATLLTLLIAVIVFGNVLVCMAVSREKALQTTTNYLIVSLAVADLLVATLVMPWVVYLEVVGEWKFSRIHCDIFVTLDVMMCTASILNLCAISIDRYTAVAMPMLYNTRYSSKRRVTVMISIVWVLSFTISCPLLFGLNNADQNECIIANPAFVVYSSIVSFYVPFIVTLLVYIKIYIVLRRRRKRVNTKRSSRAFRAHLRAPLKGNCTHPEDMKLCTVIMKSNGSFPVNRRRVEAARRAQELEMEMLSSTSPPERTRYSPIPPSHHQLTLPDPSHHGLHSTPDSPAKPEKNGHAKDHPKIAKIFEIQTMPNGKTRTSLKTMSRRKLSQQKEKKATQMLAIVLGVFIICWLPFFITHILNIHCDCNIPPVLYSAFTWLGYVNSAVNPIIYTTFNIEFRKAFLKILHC
T2 sequence (P21728 whole entry, the tested form may be a part): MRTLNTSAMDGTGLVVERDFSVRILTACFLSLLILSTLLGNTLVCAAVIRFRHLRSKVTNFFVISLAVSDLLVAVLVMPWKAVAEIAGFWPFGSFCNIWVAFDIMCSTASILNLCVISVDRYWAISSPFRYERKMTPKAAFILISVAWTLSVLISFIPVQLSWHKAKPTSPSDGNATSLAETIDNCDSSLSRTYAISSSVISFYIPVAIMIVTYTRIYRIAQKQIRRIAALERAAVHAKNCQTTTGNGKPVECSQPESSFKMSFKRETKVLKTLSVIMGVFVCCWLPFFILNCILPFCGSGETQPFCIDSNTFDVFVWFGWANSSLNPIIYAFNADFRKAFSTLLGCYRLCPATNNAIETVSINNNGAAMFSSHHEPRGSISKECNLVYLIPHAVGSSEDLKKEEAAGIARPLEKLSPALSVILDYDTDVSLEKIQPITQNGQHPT
T1 sequence (P21728 whole entry): as the sequence (P21728 whole entry, the tested form may be a part) above

Ki [1] [nM]	EC50 (D1 receptor; [3]) [nM]	Ki [2, 4] [nM]	Structure (SMILES)	EC50 (D1 receptor) [nM]	Ki [2] [nM]
127	12	22	Cc1ccc2c(c1O)C[C@@H](C1CCN(C3Cc4ccccc4C3)CC1)O[C@H]2CN [Example 32, (1R,3S)-1-Aminomethyl-3-(1-indan-2-yl-piperidin-4-yl)-6-methyl-isochroman-5-ol dihydrobromide]		
≥ 10000	140	926	Cc1ccc2c(c1O)C[C@@H](C1CCN(CCc3cccc(Cl)c3)CC1)O[C@H]2CN [Example 107, (1R,3S)-1-Aminomethyl-3-{1-[2-(3-chloro-phenyl)-ethyl]-piperidin-4-yl}-6-methyl-isochroman-5-ol dihydrobromide]		
415	180	276	Cc1ccc2c(c1O)C[C@@H](C1CCN(CCNC(=O)c3ccccc3)CC1)O[C@H]2CN [Example 191, N-{2-[4-((1R,3S)-1-Aminomethyl-5-hydroxy-6-methylisochroman-3-yl)-piperidin-1-yl]-ethyl}benzamide dihydrobromide]		
456	250	121	CNC[C@@H]1O[C@H](C2CCN(Cc3ccc(F)cc3)CC2)Cc2c1ccc(C)c2O [Example 95, 1R,3S)-3-[1-(4-Fluoro-benzyl)-piperidin-4-yl]-6-methyl-1-methylaminomethyl-isochroman-5-ol dihydrochloride]		
≥ 10000	40	64	Cc1ccc2c(c1O)C[C@@H](C1CCN(CC(C)c3ccccc3)CC1)O[C@H]2CN (stereo partly drawn) [Example 29, (1R,3S)-1-Aminomethyl-3-[1-(2-phenyl-propyl)-piperidin-4-yl]-6-methyl-isochroman-5-ol dihydrobromide]		
794	49	165	Cc1ccc2c(c1O)C[C@@H](C1CCN(C(=O)OC(C)C)CC1)O[C@H]2CN [Example 111, 4-((1R,3S)-1-Aminomethyl-5-hydroxy-6-methyl-isochroman-3-yl)-piperidine-1-carboxylic acid isopropyl ester hydrochloride]		
≥ 10000	750	113	Cc1ccc2c(c1O)C[C@@H](C1CCN(Cc3cccc4ccccc34)CC1)O[C@H]2CN [Example 39, (1R,3S)-1-Aminomethyl-6-methyl-3-(1-naphthalen-1-ylmethyl-piperidin-4-yl)-isochroman-5-ol dihydrochloride]		
≥ 10000	60	55.2	Cc1ccc2c(c1O)C[C@@H](C1CCN(C(C)Cc3ccccc3)CC1)O[C@H]2CN (stereo partly drawn) [Example 30, (1R,3S)-1-Aminomethyl-6-methyl-3-[1-(1-methyl-2-phenyl-ethyl)-piperidin-4-yl]-isochroman-5-ol dihydrobromide]		
379	56	149	Cc1ccc2c(c1O)C[C@@H](C1CCN(CCC(C)NC(=O)c3ccc(C(F)(F)F)cc3)CC1)O[C@H]2CN (stereo partly drawn) [Example 16, N-{3-[4-((1R,3S)-1-Aminomethyl-5-hydroxy-6-methyl-isochroman-3-yl)-piperidin-1-yl]-1-methyl-propyl}-4-trifluoromethyl-benzamide dihydrochloride]		
180	131	82	Cc1ccc2c(c1O)C[C@@H](C1CCN(CC(c3ccccc3)c3ccccc3)CC1)O[C@H]2CN [Example 28, (1R,3S)-1-Aminomethyl-3-[1-(2,2-diphenyl-ethyl)-piperidin-4-yl]-6-methyl-isochroman-5-ol dihydrobromide]		
531	79	89	Cc1ccc2c(c1O)C[C@@H](C1CCN(S(=O)(=O)c3ccc(C(C)(C)C)cc3)CC1)O[C@H]2CN [Example 146, (1R,3S)-1-Aminomethyl-3-[1-(4-tert-butyl-benzenesulfonyl)-piperidin-4-yl]-6-methyl-isochroman-5-ol hydrochloride]		
40	80	36	Cc1ccc2c(c1O)C[C@@H](C1CCN(Cc3cc(C(F)(F)F)ccc3Cl)CC1)O[C@H]2CN [Example 77, (1R,3S)-1-Aminomethyl-3-[1-(2-chloro-5-trifluoromethyl-benzyl)-piperidin-4-yl]-6-methyl-isochroman-5-ol dihydrochloride]		
307	22	53.1	CNC[C@@H]1O[C@H](C2CCN(Cc3ccc(OC)cc3)CC2)Cc2c1ccc(C)c2O [Example 99, (1R,3S)-3-[1-(4-Methoxy-benzyl)-piperidin-4-yl]-6-methyl-1-methylaminomethyl-isochroman-5-ol dihydrochloride]		
639	34	54	CCC(CN1CCC([C@@H]2Cc3c(ccc(C)c3O)[C@H](CNC)O2)CC1)c1ccccc1 (stereo partly drawn) [Example 194, (1R,3S)-6-Methyl-1-methylaminomethyl-3-[1-(2-phenylbutyl)-piperidin-4-yl]isochroman-5-ol dihydrochloride]		
284	43	50	Cc1ccc2c(c1O)C[C@@H](C1CCN(CCNC(=O)Nc3ccccc3)CC1)O[C@H]2CN [Example 193, 1-{2-[4-((1R,3S)-1-Aminomethyl-5-hydroxy-6-methyl-isochroman-3-yl)piperidin-1-yl]-ethyl}-3-phenylurea dihydrobromide]		
≥ 10000	250	114	Cc1ccc2c(c1O)C[C@@H](C1CCN(CCC(C)C)CC1)O[C@H]2CN [Example 41, (1R,3S)-1-Aminomethyl-6-methyl-3-[1-(3-methyl-butyl)-piperidin-4-yl]-isochroman-5-ol dihydrochloride]		

Structure (SMILES)	Ki [1] [nM]	EC50 (D1 receptor; [3]) [nM]	Ki [2, 4] [nM]	EC50 (D1 receptor) [nM]	Ki [2] [nM]
Cc1ccc2c(c1O)C[C@@H](C1CCN(C(=O)Oc3ccc(Br)cc3)CC1)O[C@H]2CN [Example 117, 4-((1R,3S)-1-Aminomethyl-5-hydroxy-6-methyl-isochroman-3-yl)-piperidine-1-carboxylic acid 4-bromo-phenyl ester hydrochloride]	404			4.3	59
Cc1ccc2c(c1O)C[C@@H](C1CCN(C(=O)Oc3ccccc3C(F)(F)F)CC1)O[C@H]2CN [Example 119, 4-((1R,3S)-1-Aminomethyl-5-hydroxy-6-methyl-isochroman-3-yl)-piperidine-1-carboxylic acid 2-trifluoromethyl-phenyl ester hydrochloride]	649			3.1	54
